# Where “and” joins values, the source holds several entries; their conditions need not be identical. Identical values can stand only once. Entries after “also recorded” stand apart in the source; their conditions may differ. Marks after values point to notes of the source that are not given here.
# What was measured:
# [1] = test system: HBV DNA; test: Plasma HBV DNA in treatment naïve chronic hepatitis B patients; assay type: in vivo, hepatitis B virus; settings: for HBV DNA Day 29 Mean Change from Baseline: N 8; for mean reduction in plasma HBV DNA levels from baseline: after 28 days
# Excerpt: Serum HBV DNA quantitation can be performed according to methods known in the art, for example, using the polymerase chain reaction (PCR)-based assay COBAS® TAQMAN® HBV Test v2.0 (Roche Diagnostics), which has been validated to quantify HBV DNA from serum samples for diverse HBV genotypes (A-H) including pre-core mutant HBV strains, with a reported lower limit of detection of 35 IU/mL and a linear dynamic range of quantitation of 1.7×10^2 to 8.5×10^8 IU/mL IU/mL, using the WHO pooled serum reference standard for quantitation.
# (§1) In part 2 of this study (FIG. 1, sessions 8-9), the objective was to evaluate the safety, PK, and antiviral activity of Compound A in treatment naïve, chronic hepatitis B patients over a 28-day treatment period. The patient criteria were: • HBeAg-positive or negative • Plasma HBV DNA>2.0 log 10 IU/mL • ALT/AST<2.5×ULN • METAVIR stage<F3. 1.1 Patient Baseline Characteristics
# HBV DNA was assessed for each patient weekly during this study (see FIG. 3). A mean reduction in plasma HBV DNA levels of 2.16 (±0.49 SD) log10 IU/mL (25 mg Compound A) and 2.89 (±0.48 SD) log10 IU/mL (75 mg Compound A) from baseline was observed after 28 days. Three patients dosed with 75 mg QD achieved HBV DNA below the level of quantification of the HBV DNA assay while none in the 25 mg Compound A group achieved this. A more pronounced and consistent decline in HBV DNA was observed across patients in the 75 mg group compared with the 25 mg group.
# [2] = Adverse events over 28-day treatment in treatment naïve chronic hepatitis B patients; assay type: in vivo, human; settings: for Amylase Increased (most common AEs) / At least one AE (on-treatment, 28 days) / Headache (most common AEs) / Worst Grade 1 AEs / Worst Grade 2 AEs / Worst Grade 3 AEs: n = 8
# Excerpt: as §1, with “[…] Although no patients had Grade 3 or 4 AEs on treatment, one patient had Grade 1 & 2 ALT and Grade 1 AST elevations on treatment that rose to Grade 3 & 4 ALT and Grade 3 AST elevations in follow up.” for “1.1 Patient Baseline Characteristics”
# [3] = Pharmacokinetics of Compound A in chronic HBV patients, 28 day treatment; assay type: in vivo, human
# Excerpt: as §1
# The exposure (Cmax, AUC) increased in a dose-dependent manner with time-linear PK. The pharmacokinetics of Compound A were not markedly different between healthy volunteers and patients. Mean Compound A exposures in patients with CHB could be predicted from data in healthy volunteers. Mean (±SD) exposure in the 75 mg arm was within 90% prediction interval. […] Apparent clearance was low and similar in the two dosing groups (1 and 0.9 L/h at 25 mg and 75 mg, respectively).
# [4] = Safety and tolerability of single ascending doses in healthy Japanese volunteers; assay type: in vivo, human
# Experimental: A double-blind, placebo-controlled study was done to assess the safety, tolerability, and pharmacokinetics (PK) of Compound A. Thirty-two healthy adult Japanese volunteers were randomized into four cohorts. The volunteers were randomized 3:1 to receive a single dose of Compound A or placebo in a fasted state (see FIG. 4). The safety, tolerability and PK plasma profiles of Compound A were assessed after each dose. Full plasma PK profiles were determined up to 28 days after each single dose of Compound A. Urinary elimination was assessed in Cohort C (see FIG. 4) for 7 day. […] The treatment emergent adverse events (TEAEs) reported reported were hiccups, upper respiratory tract infection, nasal congestion, and cough. […] No significant laboratory abnormalities were discovered, most laboratory abnormalities were Grade 1.
structure (smiles),measurement,setting,value
C[C@H](NS(=O)(=O)c1cc(C(=O)Nc2ccc(F)c(C#N)c2)n(C)c1)C(F)(F)F [Compound A],HBV DNA Day 29 Mean Change from Baseline,[1]; 25 mg QD,−2.16 log10 IU/mL
same,mean reduction in plasma HBV DNA levels from baseline,[1]; 25 mg,2.16 (±0.49 SD) log10 IU/mL and 2.16 (±0.49) log10 IU/mL
same,HBV DNA Day 29 Mean Change from Baseline,[1]; 75 mg QD,−2.89 log10 IU/mL
same,mean reduction in plasma HBV DNA levels from baseline,[1]; 75 mg,2.89 (±0.48 SD) log10 IU/mL and 2.89 (±0.48) log10 IU/mL
same,Amylase Increased (most common AEs),[2]; 25 mg (100 mg Day 1),2 (25)** n (%)
same,"At least one AE (on-treatment, 28 days)",[2]; 25 mg (100 mg Day 1),5 n (%) and 5 (63) n (%)
same,Headache (most common AEs),[2]; 25 mg (100 mg Day 1),2 (25) n (%)
same,Worst Grade 1 AEs,[2]; 25 mg (100 mg Day 1),3 (38) n (%)
same,Worst Grade 2 AEs,[2]; 25 mg (100 mg Day 1),1 (13) n (%)
same,Worst Grade 3 AEs,[2]; 25 mg (100 mg Day 1),1 (13) n (%)
same,ECG changes and vital sign abnormalities,"[2]; 25 mg and 75 mg, 28 days",no patients showed clinically significant ECG changes or persistent/worsening vital sign abnormalities
same,"serious AEs, discontinuations, dose-limiting toxicities","[2]; 25 mg and 75 mg, 28 days","no serious adverse events (SAES) or adverse events (AEs) of clinical concern and no treatment discontinuations; also recorded: no serious AEs, no discontinuations due to AEs, and no dose-limiting toxicities"
same,treatment-emergent Grade 3 or 4 laboratory abnormalities,"[2]; 25 mg and 75 mg, 28 days","No treatment-emergent Grade 3 or 4 laboratory abnormalities were reported, with the exception of the Grade 3 amylase increase"
same,Amylase Increased (most common AEs),[2]; 75 mg,0 n (%)
same,"At least one AE (on-treatment, 28 days)",[2]; 75 mg,4 n (%) and 4 (50) n (%)
same,Headache (most common AEs),[2]; 75 mg,0 n (%)
same,Worst Grade 1 AEs,[2]; 75 mg,2 (25) n (%)
same,Worst Grade 2 AEs,[2]; 75 mg,1 (13) n (%)
same,Worst Grade 3 AEs,[2]; 75 mg,0 (0)* n (%)
same,patients who experienced at least one AE during treatment,[2]; both Compound A arms pooled (9/16),56%
same,Apparent clearance,[3]; 25 mg,1 L/h
same,Mean dose normalized AUC 0-24 h,[3]; 25 mg,1109 ng·h/mL
same,Mean dose normalized Cmax at steady state,[3]; 25 mg,56.6 ng/mL
same,dose proportionality of pharmacokinetics,[3]; 25 mg and 75 mg arms,dose-proportional
same,Apparent clearance,[3]; 75 mg,0.9 L/h
same,Mean dose normalized AUC 0-24 h,[3]; 75 mg,1109 ng·h/mL
same,Mean dose normalized Cmax at steady state,[3]; 75 mg,53.2 ng/mL
same,Deaths,[4]; 25 mg single dose (n = 6),0
same,Grade 2 AEs: Bilirobin increased,[4]; 25 mg single dose (n = 6),0
same,Grade 2 AEs: Cholesterol increased,[4]; 25 mg single dose (n = 6),0
same,Grade 2 AEs: Fibrinogen decreased,[4]; 25 mg single dose (n = 6),0
same,Grade 2 AEs: Leukocytes decreased,[4]; 25 mg single dose (n = 6),0
same,Grade 2 AEs: Triglycerides increased,[4]; 25 mg single dose (n = 6),1
same,SAEs,[4]; 25 mg single dose (n = 6),0
same,Treatment-emergent AEs Related to Compound A,[4]; 25 mg single dose (n = 6),0
same,Volunteers with ≥0.1 AE (treatment-emergent AEs),[4]; 25 mg single dose (n = 6),0
same,Deaths,[4]; 150 mg single dose (n = 6),0
same,Grade 2 AEs: Bilirobin increased,[4]; 150 mg single dose (n = 6),0
same,Grade 2 AEs: Cholesterol increased,[4]; 150 mg single dose (n = 6),0
same,Grade 2 AEs: Fibrinogen decreased,[4]; 150 mg single dose (n = 6),0
same,Grade 2 AEs: Leukocytes decreased,[4]; 150 mg single dose (n = 6),0
same,Grade 2 AEs: Triglycerides increased,[4]; 150 mg single dose (n = 6),0
same,SAEs,[4]; 150 mg single dose (n = 6),0
same,Treatment-emergent AEs Related to Compound A,[4]; 150 mg single dose (n = 6),0
same,Volunteers with ≥0.1 AE (treatment-emergent AEs),[4]; 150 mg single dose (n = 6),2
same,Deaths,[4]; 300 mg single dose (n = 6),0
same,Grade 2 AEs: Bilirobin increased,[4]; 300 mg single dose (n = 6),0
same,Grade 2 AEs: Cholesterol increased,[4]; 300 mg single dose (n = 6),0
same,Grade 2 AEs: Fibrinogen decreased,[4]; 300 mg single dose (n = 6),0
same,Grade 2 AEs: Leukocytes decreased,[4]; 300 mg single dose (n = 6),0
same,Grade 2 AEs: Triglycerides increased,[4]; 300 mg single dose (n = 6),1
same,SAEs,[4]; 300 mg single dose (n = 6),0
same,Treatment-emergent AEs Related to Compound A,[4]; 300 mg single dose (n = 6),0
same,Volunteers with ≥0.1 AE (treatment-emergent AEs),[4]; 300 mg single dose (n = 6),0
same,Deaths,[4]; 500 mg single dose (n = 6),0
same,Grade 2 AEs: Bilirobin increased,[4]; 500 mg single dose (n = 6),0
same,Grade 2 AEs: Cholesterol increased,[4]; 500 mg single dose (n = 6),0
same,Grade 2 AEs: Fibrinogen decreased,[4]; 500 mg single dose (n = 6),0
same,Grade 2 AEs: Leukocytes decreased,[4]; 500 mg single dose (n = 6),0
same,Grade 2 AEs: Triglycerides increased,[4]; 500 mg single dose (n = 6),0
same,SAEs,[4]; 500 mg single dose (n = 6),0
same,Treatment-emergent AEs Related to Compound A,[4]; 500 mg single dose (n = 6),0
same,Volunteers with ≥0.1 AE (treatment-emergent AEs),[4]; 500 mg single dose (n = 6),2
same,Deaths,[4]; Total (n = 32),0
same,Grade 2 AEs: Bilirobin increased,[4]; Total (n = 32),0
same,Grade 2 AEs: Cholesterol increased,[4]; Total (n = 32),0
same,Grade 2 AEs: Fibrinogen decreased,[4]; Total (n = 32),0
same,Grade 2 AEs: Leukocytes decreased,[4]; Total (n = 32),0
same,Grade 2 AEs: Triglycerides increased,[4]; Total (n = 32),2
same,SAEs,[4]; Total (n = 32),0
same,Treatment-emergent AEs Related to Compound A,[4]; Total (n = 32),0
same,Volunteers with ≥0.1 AE (treatment-emergent AEs),[4]; Total (n = 32),4
same,Grade 3 or 4 laboratory abnormalities,"[4]; single dose 25-500 mg, fasted",No Grade 3 or 4 abnormalities were reported
same,SAEs and premature discontinuation for an AE,"[4]; single dose 25-500 mg, fasted",No volunteers experienced an SAE or prematurely discontinued the study for an AE
same,severity of treatment emergent adverse events (TEAEs),"[4]; single dose 25-500 mg, fasted",All TEAEs were mild
same,tolerability,"[4]; single dose 25-500 mg, fasted",well tolerated

# Reference: US10973801B2, “Capsid assembly modulator dosing regimen” (Janssen Sciences Ireland Unlimited Company, priority 2018, dated 2021)
